* marks the point of attachment. Palmitoyl = CCCCCCCCCCCCCCCC(=O)*
System: IL-6
Experiment: Synergy test: IL-6 production on HK following blue light irradiation (ELISA)
Assay type: cell-based, human
Settings: blue light 30.2 J/cm2, 24 hours contact, compound taken separately, nsd
Protocol: HK are cultivated in their culture medium. After rinsing with PBS, the cells are returned to this same buffer and exposed to blue light at a non-cytotoxic dose of 30.2 J/cm^2. The exhibition system consists of a set of 30 blue LEDs spread over a 30 cm^2 flat surface. The photon flux reaches the cells perpendicularly. The temperature is controlled, and all the cells are in the same enclosure (37° C./5% CO2). The emission spectrum is centered on 420 nm. The cells are then brought into contact with each of the invention compounds taken separately or with the composition according to the invention for 24 hours. The culture media are then harvested, and the IL-6 concentrations assayed by ELISA method. An assay on the cell layers is used to reduce to the number of cells.

**Q.** `O=c1cc(-c2ccccc2)oc2cc(O)cc(O)c12` [Chrysine, 5,7-dihydroxyflavone] was tested. Which “% of variation in IL-6 production” value (1.6 ppm) did it give?
**A.** Its value is −10%.

**Q.** For Palmitoyl-GQPR-OH [Pal-GQPR], which “% of variation in IL-6 production” value (15 ppm) is on record?
**A.** Its value is −7%.

— US20230026167A1, “COSMETIC OR DERMATOLOGICAL COMPOSITION ACTING IN PARTICULAR ON THE EFFECTS OF BLUE LIGHT ON SKIN AND ITS APPENDAGES, AND ASSOCIATED USES” (Sederma, priority 2019, published 2023)
